This is an account of results in publication PMC11420244, “Evaluation of the effect of modafinil on the pharmacokinetics of encorafenib and binimetinib in patients with BRAF V600-mutant advanced solid tumors” (Cancer Chemotherapy and Pharmacology, 2024).

On the set-up of series [1]: method as in PMID 37837178. Particulars: cited from earlier work.
Series [2] in a line: Extrapolation of strong CYP3A inducer effect on encorafenib from the moderate inducer effect (strong/moderate ratio approach). Particulars: extrapolated from the modafinil effect with strong/moderate ratios 1.15 to 2.43. The text has this: Another strategy to predict the effect strong induction may have on encorafenib PK, or the PK of other CYP3A substrates, but with fewer assumptions was proposed in a review by Molenaar-Kuijsten et al.. Based on a review of 12 approved oral anticancer drugs primarily metabolized by CYP3A, if no clinical DDI data were available for moderate inducers, an effect of 50% compared to strong inducers could be assumed. After expanding the dataset of Molenaar-Kuijsten to include 3 additional approved oral anti-cancer drugs (fuzuloparib, pirtobrutinib, and fedratinib) metabolized by CYP3A, we applied this approach in the opposite direction (lack of clinical data for the effect of strong CYP3A4 inducers) given available clinical DDI data generated in this study for encorafenib (Table 3). The median ratio of the decrease for a strong inducer to a moderate inducer was 1.56 and ranged from 1.15 for cobimetinib to 2.43 for palbociclib. […] The upper end of this range is consistent with PBPK simulations conducted prior to the study, indicating encorafenib exposures would decrease by ∼ 58% in combination with rifampin (based on a model with some simplifying assumptions) and would also be consistent with the recommendations based on in vitro data to avoid strong inducers in combination with encorafenib. […]

On the set-up of series [3]: method as in PMID 28611198. Particulars: cited from earlier work.
The conditions of series [4]: PBPK simulations conducted prior to the study; cited from earlier work.
The subject of the next series is CYP2C19. Particulars: cited from earlier work.
A further series has as its system CYP3A4. More on the design: method as in earlier work. Particulars: human liver microsomes; cited from earlier work.
Series [5] is described as follows: Phase 1 clinical DDI study: steady-state plasma PK (noncompartmental analysis) with and without modafinil. Particulars: for AUClast GMR (geometric mean ratio) / Cmax GMR (geometric mean ratio): Day 21 (with modafinil) relative to Day 14 (without); for Effect of steady-state modafinil on exposure/PK (in words): Day 21 vs Day 14, modafinil 400 mg QD; for Tmax / AUC(0-t) / Cmax / half-life: human; for Tmax: read-out: Tmax, Median (range). The class given is in vivo, Human. As to the method: Encorafenib 450 mg QD and binimetinib 45 mg BID were administered starting on Day 1. Patients then received continuous treatment of 400 mg QD modafinil on Day 15 through Day 21. Blood samples for measurement of plasma concentrations of encorafenib (and its metabolite, LHY746) and binimetinib (and its active metabolite, AR00426032), were collected at 0, 1, 2, 3, 4, 6 and 8 h post dose on Day 14 and Day 21.
Human PK plasma samples were analyzed for quantitation of all PK analytes at PPD (Middleton, Wisconsin, US) using validated, sensitive, and specific HPLC/MS/MS methods in compliance with laboratory SOPs.
PK parameters including, but not limited to, Cmax and AUClast were calculated for each participant using noncompartmental analysis (NCA) methods using the WinNonlin software package (Phoenix WinNonlin Professional, version 8.0 Pharsight Corporation, Mountain View, California) for PK analytes including encorafenib and its metabolite LHY746, and binimetinib and its metabolite AR00426032.
All patients who received at least one dose of any study drug were included in the Safety Set population. The Evaluable PK Set included all patients with sufficient concentration data to calculate at least one PK parameter for encorafenib and binimetinib on Days 14 and 21. Patients who discontinued, missed 3 or more consecutive doses of encorafenib prior to completion of the last PK sampling on Day 14, or required a dose reduction of encorafenib prior to completion of the last PK sampling on Day 14 were excluded from the Evaluable PK set. In addition, patients who missed any dose of study drugs on any of the PK days, or who vomited within 4 h after dosing on any of the PK days were excluded from Evaluable PK set.
An analysis of variance (ANOVA) was performed on the natural log (ln)-transformed Cmax and AUClast of encorafenib, LHY746, binimetinib, and AR00426032. The least squares means (LSM) geometric mean ratio (GMR) and associated 90% confidence interval (CI) for each PK parameter were calculated using the exponentiation of the difference between treatment LSM from the analyses on the ln-transformed parameters and expressed as a percentage of Day 21 relative to Day 14.

In the next series the test system is UGT1A1. Particulars: cited from earlier work.
[6] abbreviates: plasma, oral, 400 mg, Day 21, with modafinil 400 mg QD, steady state, plasma, patients, read-out: AUClast, GM (CV%).
Where [7] appears, read: plasma, oral, 400 mg, Day 21, with modafinil 400 mg QD, steady state, plasma, patients, read-out: AUClast, Median (range).
The mark [8] stands for this setting: plasma, oral, 400 mg, Day 21, with modafinil 400 mg QD, steady state, plasma, patients, read-out: T1/2, GM (CV%) (converted).
The mark [9] stands for this setting: plasma, oral, 400 mg, Day 21, with modafinil 400 mg QD, steady state, plasma, patients, read-out: T1/2, Median (range) (converted).
The mark [10] stands for this setting: plasma, oral, Day 14, without modafinil, steady state, plasma, patients, read-out: AUClast, GM (CV%).
Setting [11] is: plasma, oral, Day 14, without modafinil, steady state, plasma, patients, read-out: AUClast, Median (range).
Where [12] appears, read: plasma, oral, Day 14, without modafinil, steady state, plasma, patients, read-out: Cmax, Median (range).
Where [13] appears, read: plasma, oral, Day 14, without modafinil, steady state, plasma, patients, read-out: T1/2, GM (CV%) (converted).
The mark [14] stands for this setting: plasma, oral, Day 14, without modafinil, steady state, plasma, patients, read-out: T1/2, Median (range) (converted).
The mark [15] stands for this setting: plasma, po, Day 14, without modafinil, steady state, encorafenib 450 mg QD + binimetinib 45 mg BID oral, plasma, patients, read-out: Cmax, GM (CV%).
Where [16] appears, read: plasma, po, Day 21, with modafinil 400 mg QD Days 15-21, steady state, encorafenib 450 mg QD + binimetinib 45 mg BID oral, plasma, patients, read-out: Cmax, GM (CV%).
Setting [17] is: Day 21, with modafinil 400 mg QD, steady state, plasma, patients.

Entries after “also recorded” stand apart in the source; their conditions may differ. Read-outs that look alike come from different tables or passages of the source.

In general, Tmax refers to the time from dosing to the highest level. The term Cmax denotes the maximum level reached in the sampled fluid or tissue. Take `COC(=O)N[C@@H](C)CNc1nccc(-c2cn(C(C)C)nc2-c2cc(Cl)cc(NS(C)(=O)=O)c2F)n1` [Encorafenib, encorafenib]: the “Increase in exposures on coadministration of moderate CYP3A4 inhibitor diltiazem” value in series [1] is on record as 2 fold. For the same compound, the “Increase in exposures on coadministration of strong CYP3A inhibitor posaconazole” value in series [1] is on record as 3 fold. In series [2], the “Expected reduction in AUC with a strong CYP3A inducer” value was 28–58%. Also, the “Lower exposure at steady-state compared to following a single dose (auto-induction of CYP3A4)” value in series [3] was “approximately 50%”. Besides, the “Simulated decrease of exposures in combination with rifampin” value in series [4] was approximately 58%. Besides, the “Contribution of CYP2C19 to oxidative metabolism” value in the series on CYP2C19 was approximately 16%. The “Contribution of CYP3A4 to total oxidative clearance” value in the series with CYP3A4 is listed as approximately 83%. Moreover, the “AUClast GMR (geometric mean ratio)” value in series [5] was 0.762. In series [5], the “Cmax GMR (geometric mean ratio)” value is on record as 0.798. Moreover, in series [5], the “Effect of steady-state modafinil on exposure/PK (in words)” value is given as “weak effect”. The Tmax in series [5] (oral, Day 14, without modafinil, steady state, plasma, patients) is 1 h; in series [5] (oral, Day 21, with modafinil 400 mg QD, steady state, plasma, patients), 1 h. For the same compound, the AUC(0-t) in series [5] (setting [6]) was found to be 9100 ng·h/mL; in series [5] (setting [7]), 10000 ng·h/mL; in series [5] (setting [10]), 11900 ng·h/mL; in series [5] (setting [11]), 11800 ng·h/mL. In addition, the maximum concentration (Cmax) worked out at 2750 ng/mL in series [5] (plasma, oral, 400 mg, Day 21, with modafinil 400 mg QD, steady state, plasma, patients, read-out: Cmax, Median (range)); 3560 ng/mL in series [5] (setting [12]); 3540 ng/mL in series [5] (setting [15]); 2830 ng/mL in series [5] (setting [16]). Besides, the half-life in series [5] (setting [8]) was 3.57 h; in series [5] (setting [9]), 3.8 h; in series [5] (setting [13]), 3.48 h; in series [5] (setting [14]), 3.5 h.
With `Cn1cnc2c(F)c(Nc3ccc(Br)cc3F)c(C(=O)NOCCO)cc21` [Binimetinib, binimetinib], the “Contribution of UGT1A1-mediated metabolism to metabolism” value with UGT1A1 is on record as “up to 61%”. The “AUClast GMR (geometric mean ratio)” value in series [5] came out at 0.957. Moreover, the “Cmax GMR (geometric mean ratio)” value in series [5] was found to be 1; in series [5] (listed as binimetinib), 1.00. The “Cmax, Median (range)” value in series [5] (setting [17]) is listed as 686 (424–923) ng/mL. Moreover, the “Tmax, Median (range)” value in series [5] (setting [17]) is 1.00 (0.95–2.10) hr. Besides, in series [5], the “Effect of steady-state modafinil on exposure/PK (in words)” value was “similar; also recorded: no change”. Besides, in series [5] (Days 14 and 21, steady state), the “Time at which mean plasma concentrations typically reach peak levels, postdose” value is 1 h. The AUC(0-t) stood at 2290 ng·h/mL in series [5] (setting [6]), 2430 ng·h/mL in series [5] (setting [7]), 2400 ng·h/mL in series [5] (setting [10]) and 2670 ng·h/mL in series [5] (setting [11]). Besides, the half-life in series [5] (setting [8]) was 4.55 h; in series [5] (setting [9]), 4.47 h; in series [5] (setting [13]), 4.62 h; in series [5] (setting [14]), 5.15 h. Also, the Cmax was found to be 609 ng/mL in series [5] (setting [12]), 660 ng/mL in series [5] (setting [15]) and 663 ng/mL in series [5] (setting [16]).
